From US10961200B2, “Small molecule inhibitors of lactate dehydrogenase and methods of use thereof” (THE UNITED STATES OF AMERICA, AS REPRESENTED BY THE …, priority 2014, dated 2021)

Target: Human LDHA (Homo sapiens (Human), UniProt P00338)
Experiment: human LDHA primary biochemical assay (resazurin/diaphorase coupled, fluorescence)
Conditions: LDHA inhibitory activity, assay of Example 1; activity level classes
Description: Test compounds were placed in a Greiner Bio-One (Monroe, N.C.) 1536-well black solid bottom assay plate. 200 millimolar (mM) Tris HCl, pH 7.4, 100 micromolar […] EDTA and 0.01% TWEEN-20™, final concentration, was used as the assay buffer. The LDHA reagent was 2 nanomolar (nM) Human LDHA (Meridian Life Science, Inc., Memphis, Tenn.), final concentration, in assay buffer.

Row | SMILES | IC50 [nM]
1 | Nc1c(Cc2ccc(S(N)(=O)=O)cc2)c(-c2ccccc2)nn1-c1nc(C(F)(F)F)cs1 [Compound 137, 4-((5-amino-3-phenyl-1-(4-(trifluoromethyl)thiazol-2-yl)-1H-pyrazol-4-yl)methyl)benzenesulfonamide] | > 57000
2 | O=C(O)c1csc(-n2cc(CNS(=O)(=O)N3CCNCC3)c(-c3ccccc3)n2)n1 [Compound 138, 2-(3-phenyl-4-((piperazine-1-sulfonamido)methyl)-1H-pyrazol-1-yl)thiazole-4-carboxylic acid] | > 57000
3 | NS(=O)(=O)c1ccc(NCc2cn(-c3nc(C(=O)O)cs3)nc2-c2ccccc2)cc1 [Compound 139, 2-(3-phenyl-4-(((4-sulfamoylphenyl)amino)methyl)-1H-pyrazol-1-yl)thiazole-4-carboxylic acid] | > 57000
4 | CCOC(=O)c1ccc(-n2nc(-c3ccccc3)c(Cc3ccc(S(N)(=O)=O)cc3)c2N)nn1 [Compound 140, ethyl 6-(5-amino-3-phenyl-4-(4-sulfamoylbenzyl)-1H-pyrazol-1-yl)pyridazine-3-carboxylate] | > 57000
5 | NS(=O)(=O)c1ccc(CNc2cn(-c3nc(C(=O)O)cs3)nc2-c2ccccc2)cc1 [Compound 142, 2-(3-phenyl-4-((4-sulfamoylbenzyl)amino)-1H-pyrazol-1-yl)thiazole-4-carboxylic acid] | > 57000
6 | Cn1ncc(C(=O)n2nc(-c3ccccc3)c(Cc3ccc(S(N)(=O)=O)cc3)c2N)c1N [Compound 143, 4-((5-amino-1-(5-amino-1-methyl-1H-pyrazole-4-carbonyl)-3-phenyl-1H-pyrazol-4-yl)methyl)benzenesulfonamide] | > 57000
7 | Nc1c(Cc2ccc(S(N)(=O)=O)cc2)c(-c2ccccc2)nn1-c1cc(C(=O)O)ccn1 [Compound 145, 2-(5-amino-3-phenyl-4-(4-sulfamoylbenzyl)-1H-pyrazol-1-yl)isonicotinic acid] | > 57000
8 | Nc1c(Cc2ccc(S(N)(=O)=O)cc2)c(-c2ccccc2)nn1C(=O)c1cccc2cc[nH]c12 [Compound 150, 4-((5-ammo-1-(1H-indole-7-carbonyl)-3-phenyl-1H-pyrazol-4-yl)methyl)benzenesulfonamide] | > 57000
9 | Nc1c(Cc2ccc(S(N)(=O)=O)cc2)c(-c2ccccc2)nn1-c1nccc(O)n1 [Compound 152, 4-((5-amino-1-(4-hydroxypyrimidin-2-yl)-3-phenyl-1H-pyrazol-4-yl)methyl)benzenesulfonamide] | > 57000
10 | NS(=O)(=O)c1ccc(Nc2c[nH]nc2-c2cccc(-c3ccccc3)c2)cc1 [Compound 161] | > 57000
11 | CCOC(=O)c1csc(-n2nc(C3CC3)c(Oc3ccc(S(N)(=O)=O)cc3)c2-c2ccccc2)n1 [Compound 163, ethyl 2-(3-cyclopropyl-5-phenyl-4-(4-sulfamoylphenoxy)-1H-pyrazol-1-yl)thiazole-4-carboxylate] | > 57000
12 | NS(=O)(=O)c1ccc(Oc2c(-c3ccccc3)nn(-c3nc(C(=O)O)cs3)c2C2CC2)cc1 [Compound 166, 2-(5-cyclopropyl-3-phenyl-4-(4-sulfamoylphenoxy)-1H-pyrazol-1-yl)thiazole-4-carboxylic acid] | < 100
13 | C=Cc1c(Cc2ccc(S(N)(=O)=O)cc2)c(-c2ccccc2)nn1-c1nc(C(=O)O)cs1 [Compound 167, 2-(3-phenyl-4-(4-sulfamoylbenzyl)-5-vinyl-1H-pyrazol-1-yl)thiazole-4-carboxylic acid] | < 100
14 | CCOC(=O)c1csc(-n2nc(C3CCCC3)c(Oc3ccc(S(N)(=O)=O)cc3)c2-c2ccccc2)n1 [Compound 168, ethyl 2-(3-cyclopentyl-5-phenyl-4-(4-sulfamoylphenoxy)-1H-pyrazol-1-yl)thiazole-4-carboxylate] | > 57000
15 | CCOC(=O)c1csc(-n2nc(-c3ccccc3)c(Oc3ccc(S(N)(=O)=O)cc3)c2C2CCCC2)n1 [Compound 169, ethyl 2-(5-cyclopentyl-3-phenyl-4-(4-sulfamoylphenoxy)-1H-pyrazol-1-yl)thiazole-4-carboxylate] | > 57000
16 | NS(=O)(=O)c1ccc(Oc2c(C3CCCC3)nn(-c3nc(C(=O)O)cs3)c2-c2ccccc2)cc1 [Compound 174, 2-(3-cyclopentyl-5-phenyl-4-(4-sulfamoylphenoxy)-1H-pyrazol-1-yl)thiazole-4-carboxylic acid] | 1000 to 57000

Same assay, conditions: read-out: Inhibitory activity IC50

Row | SMILES | IC50 [nM]
17 | Nc1c(Cc2ccc(S(N)(=O)=O)cc2)c(-c2ccccc2)nn1-c1cccc(C(=O)O)n1 [Compound 144, 6-(5-amino-3-phenyl-4-(4-sulfamoylbenzyl)-1H-pyrazol-1-yl)picolinic acid] | 1000 to 57000
18 | Cc1oc(=O)oc1COC(=O)c1csc(-n2cc(Cc3ccc(S(N)(=O)=O)cc3)c(-c3ccccc3)n2)n1 [Compound 149, (5-methyl-2-oxo-1,3-dioxol-4-yl)methyl 2-(3-phenyl-4-(4-sulfamoylbenzyl)-1H-pyrazol-1-yl)thiazole-4-carboxylate] | 100 to 1000
19 | CCOC(=O)c1coc(-n2nc(-c3ccccc3)c(Cc3ccc(S(N)(=O)=O)cc3)c2N)n1 [Compound 151, ethyl 2-(5-amino-3-phenyl-4-(4-sulfamoylbenzyl)-1H-pyrazol-1-yl)oxazole-4-carboxylate] | 1000 to 57000
20 | Nc1c(Cc2ccc(S(N)(=O)=O)cc2)c(-c2ccccc2)nn1-c1nc(C(=O)O)co1 [Compound 153, 2-(5-amino-3-phenyl-4-(4-sulfamoylbenzyl)-1H-pyrazol-1-yl)oxazole-4-carboxylic acid] | 100 to 1000
21 | NS(=O)(=O)c1ccc(Cc2cn(-c3nc(C(O)C(F)(F)F)cs3)nc2-c2ccccc2)cc1 (stereo not drawn) [Compound 154, 4-((3-phenyl-1-(4-(2,2,2-trifluoro-1-hydroxyethyl)thiazol-2-yl)-1H-pyrazol-4-yl)methyl)benzenesulfonamide] | 100 to 1000
22 | NS(=O)(=O)c1ccc(Cc2c(-c3ccccc3)nn(-c3nc(C(=O)O)cs3)c2-c2ccccc2)cc1 [Compound 155, 2-(3,5-diphenyl-4-(4-sulfamoylbenzyl)-1H-pyrazol-1-yl)thiazole-4-carboxylic acid] | < 100
23 | NS(=O)(=O)c1ccc(Cc2c(-c3ccccc3)nn(-c3nc(C(=O)O)cs3)c2-c2ccncc2)cc1 [Compound 156, 2-(3-phenyl-5-(pyridin-4-yl)-4-(4-sulfamoylbenzyl)-1H-pyrazol-1-yl)thiazole-4-carboxylic acid] | 1000 to 57000
24 | CC(C)c1nn(-c2nc(C(=O)O)cs2)c(-c2ccccc2)c1Cc1ccc(S(N)(=O)=O)cc1 [Compound 158, 2-(3-isopropyl-5-phenyl-4-(4-sulfamoylbenzyl)-1H-pyrazol-1-yl)thiazole-4-carboxylic acid] | 1000 to 57000
25 | CC(C)c1c(Cc2ccc(S(N)(=O)=O)cc2)c(-c2ccccc2)nn1-c1nc(C(=O)O)cs1 [Compound 159, 2-(5-isopropyl-3-phenyl-4-(4-sulfamoylbenzyl)-1H-pyrazol-1-yl)thiazole-4-carboxylic acid] | 100 to 1000
26 | CCOC(=O)c1csc(-n2cc(Nc3ccc(S(N)(=O)=O)cc3)c(-c3cccc(-c4ccccc4)c3)n2)n1 [Compound 162, ethyl 2-(3-([1,1′-biphenyl]-3-yl)-4-((4-sulfamoylphenyl)amino)-1H-pyrazol-1-yl)thiazole-4-carboxylate] | 1000 to 57000
27 | CCOC(=O)c1csc(-n2nc(-c3ccccc3)c(Oc3ccc(S(N)(=O)=O)cc3)c2C2CC2)n1 [Compound 164, ethyl 2-(5-cyclopropyl-3-phenyl-4-(4-sulfamoylphenoxy)-1H-pyrazol-1-yl)thiazole-4-carboxylate] | 1000 to 57000
28 | NS(=O)(=O)c1ccc(Oc2c(C3CC3)nn(-c3nc(C(=O)O)cs3)c2-c2ccccc2)cc1 [Compound 165] | 1000 to 57000
29 | NS(=O)(=O)c1ccc(Oc2c(C3CCCC3)nn(-c3nc(C(=O)O)cs3)c2-c2ccccc2)cc1 [Compound 170, 2-(3-cyclopentyl-5-phenyl-4-(4-sulfamoylphenoxy)-1H-pyrazol-1-yl)thiazole-4-carboxylic acid] | 1000 to 57000
30 | NS(=O)(=O)c1ccc(Oc2c(-c3ccccc3)nn(-c3nc(C(=O)O)cs3)c2C2CCCC2)cc1 [Compound 171, 2-(5-cyclopentyl-3-phenyl-4-(4-sulfamoylphenoxy)-1H-pyrazol-1-yl)thiazole-4-carboxylic acid] | 100 to 1000
31 | NS(=O)(=O)c1ccc(Oc2c(C3CCCCC3)nn(-c3nc(C(=O)O)cs3)c2-c2ccccc2)cc1 [Compound 172, 2-(3-cyclohexyl-5-phenyl-4-(4-sulfamoylphenoxy)-1H-pyrazol-1-yl)thiazole-4-carboxylic acid] | 1000 to 57000
32 | NS(=O)(=O)c1ccc(Oc2c(-c3ccccc3)nn(-c3nc(C(=O)O)cs3)c2C2CCCCC2)cc1 [Compound 173, 2-(5-cyclohexyl-3-phenyl-4-(4-sulfamoylphenoxy)-1H-pyrazol-1-yl)thiazole-4-carboxylic acid] | 1000 to 57000
33 | NS(=O)(=O)c1ccc(Cc2c(-c3ccccc3)nn(-c3nc(C(=O)O)cs3)c2C2CCCC2)cc1 [Compound 175, 2-(5-cyclopentyl-3-phenyl-4-(4-sulfamoylbenzyl)-1H-pyrazol-1-yl)thiazole-4-carboxylic acid] | 100 to 1000
34 | NS(=O)(=O)c1ccc(Cc2c(C3CCCCC3)nn(-c3nc(C(=O)O)cs3)c2-c2ccccc2)cc1 [Compound 176, 2-(3-cyclohexyl-5-phenyl-4-(4-sulfamoylbenzyl)-1H-pyrazol-1-yl)thiazole-4-carboxylic acid] | 1000 to 57000
35 | NS(=O)(=O)c1ccc(Cc2c(-c3ccccc3)nn(-c3nc(C(=O)O)cs3)c2C2CCCCC2)cc1 [Compound 177, 2-(5-cyclohexyl-3-phenyl-4-(4-sulfamoylbenzyl)-1H-pyrazol-1-yl)thiazole-4-carboxylic acid] | 1000 to 57000
36 | NS(=O)(=O)c1ccc(Cc2c(-c3ccccc3)nn(-c3nc(C(=O)O)cs3)c2C2CO2)cc1 (stereo not drawn) [Compound 178, 2-(5-(oxiran-2-yl)-3-phenyl-4-(4-sulfamoylbenzyl)-1H-pyrazol-1-yl)thiazole-4-carboxylic acid] | 1000 to 57000
